Assay results taken from article PMC6320863, “Interaction of Chrysin and Its Main Conjugated Metabolites Chrysin-7-Sulfate and Chrysin-7-Glucuronide with Serum Albumin” (International Journal of Molecular Sciences, 2018).

Test system: T1, ochratoxin A–HSA complex
T1 construct: purchased Sigma-Aldrich
Experiment: Fluorescence anisotropy of ochratoxin A–HSA complex
Assay type: binding, human
Settings: 1.0 µmol/L ochratoxin A, 1.5 µmol/L HSA, flavonoid 2.5–30 μM, PBS pH 7.4, λex 393 nm, λem 446 nm

SMILES	Fluorescence anisotropy of ochratoxin A
O=c1cc(-c2ccccc2)oc2cc(O)cc(O)c12 [Chrysin, 5,7-dihydroxyflavone]	failed to affect
O=C(O)C1OC(Oc2cc(O)c3c(=O)cc(-c4ccccc4)oc3c2)C(O)C(O)C1O (stereo not drawn) [Chrysin-7-glucuronide, chrysin-7-glucuronide]	failed to affect
O=c1cc(-c2ccccc2)oc2cc(OS(=O)(=O)O)cc(O)c12 [Chrysin-7-sulfate, chrysin-7-sulfate]	concentration-dependent decrease
